Experimental data from patent publication US11773109B2, “Composition for hardening soft tissue” (The Catholic University of Korea Industry—Academic …, priority 2016, dated 2023).
“Also recorded” adds a separate entry of the source.

Assays:
pancreas of mice [1] = assay: Hardness (elastic modulus) of the mouse pancreas after treatment, hardness meter (Venustron); type: in vivo
Protocol: The measurement of the hardness according to the present invention is performed using a hardness meter, and measurement of the hardness of the pancreas is performed by measuring elastic modulus (EM) based on the Hooke's law and the Hertz's contact stress theory. The EM is a measure of the stiffness of an elastic material, and is expressed as the ratio of “the stress along the axis” and “the total strain along the axis within the range of the stress” by the Hooke's law.
(§1) More specifically, three mice were treated with 1 mM of each of the antibiotics shown above, and three mice were treated with phosphate buffered saline (PBS) as a control.
(1) Measurement of Hardness
In order to measure the resistance of the pancreas using a hardness meter, the elastic modulus (EM) of the dissected pancreas was measured using Venustron (Axiom, Koriyama, Japan) based on the Hooke's law and the Hertz's contract stress theory, and the resistance of the pancreas was calculated using the following equation: […]
(F, force; v, Poisson's ratio; t, variant of compression; r, the diameter of a rigid spherical probe that presses an object vertically)

pancreas of mice [2] = assay: Tension (suture-holding capacity) of the mouse pancreas after treatment, Newton dynamometer; type: in vivo; settings: for response vs control in vivo at 1000 µM: fold of control, read-out: increase of the tension of the pancreas compared to the control
Protocol: Specifically, it means a force which occurs in an organ in response to an external force exerted by stretching or pulling action. The measurement of the tension according to the present invention is performed using a dynamometer. More specifically, the tension is determined by measuring suture-holding capacity using a Newton dynamometer. At this time, the tension is calculated by adding the weight of the tissue.
as §1
(2) Measurement of Tensile
The tension of the pancreas was measured using a dynamometer. Specifically, a pancreatic fragment having a size of 1×1×1.5 cm was prepared, and then silk 4-0 suture was passed through the tissue to form a knob, and suture-holding capacity was measured using a Newton dynamometer. At this time, the tension was calculated by adding the weight of the tissue.

[3] = mouse pancreas treated with 1 mM of compound, compared to control (PBS / untreated), result in words
[4] = mouse pancreas treated with 1 mM of compound

SMILES	change in the hardness of the pancreas compared to the control (pancreas of mice [1]; [3])	change in the tension of the pancreas compared to the control (pancreas of mice [2]; [3])	response vs control in vivo at 1000 µM (pancreas of mice [2]; [4])	change in the hardness of the pancreas compared to the control (pancreas of mice [1]; mouse, in vivo)	change in the tension of the pancreas compared to the control (pancreas of mice [2]; mouse, in vivo)	increase of the hardness of the pancreas compared to the control (pancreas of mice [1]; mouse pancreas treated with 1 mM of compound, fold of control)
O=C(O)c1ccc2cccnc2c1O [KRP-00016, 8-hydroxyquinoline-7-carboxylic acid]	increased both the hardness and tension	increased both the hardness and tension	≥ 150%	–	–	–
CC(C)COC(=O)[C@@H]1N2C(=O)[C@@H](NC(=O)Cc3ccccc3)[C@H]2SC1(C)C [KRM-60078, Isobutyl (2S,5R,6R)-3,3-dimethyl-7-oxo-6-(2-phenylacetamido)-4-thia-1-azabicyclo[3.2.0]heptane-2-carboxylate]	increased both the hardness and tension of the pancreas to significant levels	increased both the hardness and tension of the pancreas to significant levels	–	–	–	–
CC1(C)S[C@@H]2[C@H](NC(=O)Cc3ccccc3)C(=O)N2[C@H]1C(=O)OCC1CCCCC1 [KRM-60029, Cyclohexylmethyl (2S,5R,6R)-3,3-dimethyl-7-oxo-6-(2-phenylacetamido)-4-thia-1-azabicyclo[3.2.0]heptane-2-carboxylate]	both the hardness and tension of the pancreas increased	both the hardness and tension of the pancreas increased	–	–	–	–
Oc1cccc2cccnc12 [KRM-60042, 8-hydroxyquinoline, reference compound]	–	–	–	significantly increases both the hardness and tension; also recorded: had the effects of increasing the tension and hardness; also recorded: increased both the hardness and tension of the pancreas to high levels; also recorded: excellent effects on increases in both the hardness and tension	significantly increases both the hardness and tension; also recorded: had the effects of increasing the tension and hardness; also recorded: increased both the hardness and tension of the pancreas to high levels; also recorded: excellent effects on increases in both the hardness and tension	–
O=C(O)c1cc(O)c2cccc(O)c2n1 [KRP-00005, 4,8-dihydroxyquinoline-2-carboxylic acid]	increased both the hardness and tension	increased both the hardness and tension	≥ 150%	–	–	–
Cc1cc(O)c2ccccc2n1 [KRP-00006, 4-hydroxy-2-methylquinoline]	increased both the hardness and tension	increased both the hardness and tension	–	–	–	–
Oc1c(I)cc(Cl)c2cccnc12 [KRP-00003, 5-chloro-8-hydroxy-7-iodoquinoline]	increased both the hardness and tension	increased both the hardness and tension	≥ 150%	–	–	–
CC(=O)OCC1=C(C(=O)O)N2C(=O)[C@@H](N)[C@H]2SC1 [KRM-60081, (6R,7R)-3-(acetoxymethyl)-7-amino-8-oxo-5-thia-1-azabicyclo[4.2.0]oct-2-ene-2-carboxylic acid]	increased both the hardness and tension of the pancreas to significant levels	increased both the hardness and tension of the pancreas to significant levels	–	–	–	–
O=C(O)c1cnc2cc(C(F)(F)F)ccc2c1O [KRP-00009, 4-hydroxy-7-trifluoromethyl-3-quinolinecarboxylic acid]	increased both the hardness and tension	increased both the hardness and tension	≥ 150%	–	–	–
Oc1c(I)cc(I)c2cccnc12 [KRP-00004, 5,7-diiodo-8-hydroxyquinoline]	increased both the hardness and tension	increased both the hardness and tension	≥ 150%	–	–	–
Oc1cc2ccccc2cn1 [KRP-00010, 3-hydroxyisoquinoline]	–	–	~240%	–	–	–
CC(C)(S)[C@@H](N)C(=O)O [KRM-60037, (S)-2-amino-3-mercapto-3-methylbutanoic acid, reference compound]	had the effects of increasing the tension and hardness	had the effects of increasing the tension and hardness	150%	–	–	–
COc1cc(Cc2cnc(N)nc2N)cc(OC)c1OC [KRM-60088, 5-(3,4,5-trimethoxybenzyl)pyrimidine-2,4-diamine]	increased both the hardness and tension of the pancreas to significant levels	increased both the hardness and tension of the pancreas to significant levels	–	–	–	–
CC1(C)S[C@@H]2[C@H](NC(=O)Cc3ccccc3)C(=O)N2[C@H]1C(=O)O.[K+] [KRM-60027, Potassium (2S,5R,6R)-3,3-dimethyl-7-oxo-6-(2-phenylacetamido)-4-thia-1-azabicyclo[3.2.0]heptane-2-carboxylate, reference compound]	–	significantly increasing the tension; also recorded: had the effects of increasing the tension and hardness; also recorded: increased the tension of the pancreas to a significant level; also recorded: excellent effect on an increase in the tension; also recorded: significant increase in the tension	–	–	–	–
CC(=O)N1CCN(c2ccc(OC[C@H]3CO[C@](Cn4ccnc4)(c4ccc(Cl)cc4Cl)O3)cc2)CC1 [KRM-60049, 1-(4-(4-(((2R,4S)-2-((1H-imidazol-1-yl)methyl)-2-(2,4-dichlorophenyl)-1,3-dioxolan-4-yl)methoxy)phenyl)piperazin-1-yl)ethanone, reference compound]	had the effects of increasing the tension and hardness; also recorded: increased both the hardness and tension of the pancreas to high levels	had the effects of increasing the tension and hardness; also recorded: increased both the hardness and tension of the pancreas to high levels	–	–	–	–
Oc1ccc(Cl)c2cccnc12 [KRP-00002, 5-chloro-8-hydroxyquinoline]	increased both the hardness and tension	increased both the hardness and tension	≥ 150%	–	–	–
Oc1ccnc2ccccc12 [KRP-00012, 4-hydroxyquinoline]	increased both the hardness and tension	increased both the hardness and tension	≥ 150%	–	–	–
CC1(C)S[C@@H]2[C@H](NC(=O)[C@H](N)c3ccccc3)C(=O)N2[C@H]1C(=O)[O-].[Na+] [KRM-60036, Sodium (2S,5R,6R)-6-((R)-2-amino-2-phenylacetamido)-3,3-dimethyl-7-oxo-4-thia-1-azabicyclo[3.2.0]heptane-2-carboxylate, reference compound]	significantly increased the hardness; also recorded: had the effects of increasing the tension and hardness; also recorded: excellent effect on an increase in the hardness	had the effects of increasing the tension and hardness	–	–	–	–
CCn1cc(C(=O)O)c(=O)c2cnc(N3CCNCC3)nc21 [KRM-60082, 8-ethyl-5-oxo-2-(piperazin-1-yl)-5,8-dihydropyrido[2,3-d]pyrimidine-6-carboxylic acid]	increased both the hardness and tension of the pancreas to significant levels	increased both the hardness and tension of the pancreas to significant levels	–	–	–	–
CC1(C)S[C@@H]2[C@H](NC(=O)Cc3ccccc3)C(=O)N2[C@H]1C(=O)OCCCC#N [KRM-60030, 3-cyanopropyl (2S,5R,6R)-3,3-dimethyl-7-oxo-6-(2-phenylacetamido)-4-thia-1-azabicyclo[3.2.0]heptane-2-carboxylate]	both the hardness and tension of the pancreas increased	both the hardness and tension of the pancreas increased	200%	–	–	1.5 times
Oc1ccc2ccccc2n1 [KRP-00014, 2-hydroxyquinoline]	increased both the hardness and tension	increased both the hardness and tension	≥ 150%	–	–	–
Oc1ccc2ncccc2c1 [KRP-00013, 6-hydroxyquinoline]	increased both the hardness and tension	increased both the hardness and tension	≥ 150%	–	–	–
